Assay results: US10544130B2, “Metallo-beta-lactamase inhibitors” (priority 2015, dated 2020)
Where a name gives a salt, the structure may show the parent alone. Read-outs that look alike come from different tables or passages of the source.

Test system: Pseudomonas aeruginosa PAO1 MB9798 (efflux+, IMP-1)
Settings: imipenem at 2 μg/mL
Procedure, shortened: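 Isogenic PAO1 pair (efflux+ MB9798, efflux− MB9799, both IMP-1) tested by microbroth MIC with fixed imipenem and/or ceftazidime, usually at CLSI breakpoint, plus fixed class A/C inhibitor against AmpC. MBL inhibitor titrated; concentration restoring susceptibility recorded and fold difference between strains taken as efflux extent.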

[1] = ratio MITC95 PA 9798/MITC95 PA 9799

Row | SMILES | Efflux ratio [1] | Efflux ratio (fold difference between efflux + (MB9798) and efflux − (MB9799) strains)
1 | NC[C@H](CO)NS(=O)(=O)c1ccc(-c2cccc3sc(N)nc23)c(-c2nnn[nH]2)c1S(N)(=O)=O [Example 202, (R)—N^1-(1-amino-3-hydroxypropan-2-yl)-4-(2-aminobenzo[d]thiazol-4-yl)-3-(1H-tetrazol-5-yl)benzene-1,2-disulfonamide] | 1.00 | –
2 | NC[C@H](O)CNS(=O)(=O)c1ccc(-c2ccc(N)nc2)c(-c2nn[nH]n2)c1S(N)(=O)=O [Example 309, (S)-N1-(3-amino-2-hydroxypropyl)-4-(6-aminopyridin-3-yl)-3-(2H-tetrazol-5-yl)benzene-1,2-disulfonamide] | 1.00 | –
3 | Nc1nc2c(-c3ccc(S(=O)(=O)N[C@H]4CO[C@H]5[C@H]4OC[C@H]5O)c(S(N)(=O)=O)c3-c3nnn[nH]3)cccc2s1 [Example 50, 2-({[4-(2-amino-1,3-benzothiazol-4-yl)-2-sulfamoyl-3-(1H-tetrazol-5-yl)phenyl]sulfonyl}amino)-1,4:3,6-dianhydro-2-deoxy-D-allitol] | 2.00 | –
4 | NS(=O)(=O)c1ccc(-c2cccc3[nH]c(C(=O)O)nc23)c(-c2nn[nH]n2)c1S(N)(=O)=O [Example 8, 4-(3,4-disulfamoyl-2-(2H-tetrazol-5-yl)phenyl)-1H-benzo[d]imidazole-2-carboxylic acid] | 1.00 | –
5 | CNS(=O)(=O)c1ccc(-c2cccc3sc(N)nc23)c(-c2nn[nH]n2)c1S(N)(=O)=O [Example 152, 4-(2-aminobenzo[d]thiazol-4-yl)-N1-methyl-3-(2H-tetrazol-5-yl)benzene-1,2-disulfonamide] | 8.00 | –
6 | Nc1nc2c(-c3ccc(S(=O)(=O)NCC4CCN4)c(S(N)(=O)=O)c3-c3nn[nH]n3)cccc2[nH]1 (stereo not shown) [Example 207, 4-(2-amino-1H-benzo[d]imidazol-4-yl)-N1-(azetidin-2-ylmethyl)-3-(2H-tetrazol-5-yl)benzene-1,2-disulfonamide] | 2.00 | –
7 | CN(C)S(=O)(=O)c1ccc(-c2cccc3sc(N)nc23)c(-c2nn[nH]n2)c1S(N)(=O)=O [Example 151, 4-(2-aminobenzo[d]thiazol-4-yl)-N1,N1-dimethyl-3-(2H-tetrazol-5-yl)benzene-1,2-disulfonamide] | 16.00 | –
8 | Nc1nc2c(-c3ccc(S(=O)(=O)N4CCNC(=O)C4)c(S(N)(=O)=O)c3-c3nnn[nH]3)cccc2s1 [Example 28, 3-(2-amino-1,3-benzothiazol-4-yl)-6-[(3-oxopiperazin-1-yl)sulfonyl]-2-(1H-tetrazol-5-yl)benzenesulfonamide] | 4.00 | –
9 | Nc1nc2c(-c3ccc(S(=O)(=O)N[C@H]4CCCNC4)c(S(N)(=O)=O)c3-c3nnn[nH]3)cccc2[nH]1 [Example 179, (S)-4-(2-amino-1H-benzo[d]imidazol-4-yl)-N^1-(piperidin-3-yl)-3-(1H-tetrazol-5-yl)benzene-1,2-disulfonamide] | 2.00 | –
10 | NCCNS(=O)(=O)c1ccc(-c2cccc3nonc23)c(-c2nn[nH]n2)c1S(N)(=O)=O [Example 239, N^1-(2-aminoethyl)-4-(benzo[c][1,2,5]oxadiazol-4-yl)-3-(2H-tetrazol-5-yl)benzene-1,2-disulfonamide] | 8.00 | –
11 | NC[C@@H](N)CNS(=O)(=O)c1ccc(-c2cccc(-c3n[nH]c(N)n3)c2)c(-c2nn[nH]n2)c1S(N)(=O)=O [Example 230, (R)-3′-(5-amino-1H-1,2,4-triazol-3-yl)-N4-(2,3-diaminopropyl)-2-(2H-tetrazol-5-yl)-[1,1′-biphenyl]-3,4-disulfonamide] | 1.00 | –
12 | C[C@H]1NC(=O)O[C@H]1c1ccc(-c2ccc(S(=O)(=O)N[C@@H]3CCNC3)c(S(N)(=O)=O)c2-c2nnn[nH]2)cc1 [Example 141, 4'-((4R,5S)-4-methyl-2-oxooxazolidin-5-yl)-N4-((R)-pyrrolidin-3-yl)-2-(1H-tetrazol-5-yl)-[1,1'-biphenyl]-3,4-disulfonamide] | 1.00 | –
13 | C[C@@H](N)CNS(=O)(=O)c1ccc(-c2cccc3[nH]c(N)nc23)c(-c2nn[nH]n2)c1S(N)(=O)=O [Example 185, 4-(2-amino-1H-benzo[d]imidazol-4-yl)-N1-((R)-2-aminopropyl)-3-(2H-tetrazol-5-yl)benzene-1,2-disulfonamide] | 0.65 | –
14 | NS(=O)(=O)c1ccc(-c2cccc3cn[nH]c23)c(-c2nn[nH]n2)c1S(N)(=O)=O [Example 3, 4-(1H-indazol-7-yl)-3-(2H-tetrazol-5-yl)benzene-1,2-disulfonamide] | 2.00 | –
15 | NS(=O)(=O)c1c(S(=O)(=O)N[C@@H]2CCNC2)ccc(-c2cccc3nc(O)[nH]c23)c1-c1nnn[nH]1 [Example 130, (R)-4-(2-hydroxy-1H-benzo[d]imidazol-7-yl)-N1-(pyrrolidin-3-yl)-3-(1H-tetrazol-5-yl)benzene-1,2-disulfonamide] | 0.50 | –
16 | CN1CCCC(NS(=O)(=O)c2ccc(-c3cccc4sc(N)nc34)c(-c3nnn[nH]3)c2S(N)(=O)=O)C1 (stereo not shown) [Example 18, 4-(2-amino-1,3-benzothiazol-4-yl)-N1-(1-methylpiperidin-3-yl)-3-(1H-tetrazol-5-yl)benzene-1,2-disulfonamide] | 1.00 | –
17 | Nc1ccc(-c2ccc(S(=O)(=O)N[C@@H]3CCNC3)c(S(N)(=O)=O)c2-c2nn[nH]n2)cn1 [Example 194, (R)-4-(6-aminopyridin-3-yl)-N^1-(pyrrolidin-3-yl)-3-(2H-tetrazol-5-yl)benzene-1,2-disulfonamide] | 0.80 | –
18 | C[N+](C)(C)CCNS(=O)(=O)c1ccc(-c2cccc3sc(N)nc23)c(-c2nnn[nH]2)c1S(N)(=O)=O [Example 391, 2-({[4-(2-amino-1,3-benzothiazol-4-yl)-2-sulfamoyl-3-(1H-tetrazol-5-yl)phenyl]sulfonyl}amino)-N,N,N-trimethylethanaminium trifluoroacetate] | – | 1.00
19 | Nc1nc2c(-c3ccc(S(=O)(=O)NC4CC5CNC4C5)c(S(N)(=O)=O)c3-c3nnn[nH]3)cccc2s1 (stereo not shown) [Example 89, 4-(2-aminobenzo[d]thiazol-4-yl)-N^1-(2-azabicyclo[2.2.1]heptan-6-yl)-3-(1H-tetrazol-5-yl)benzene-1,2-disulfonamide] | 1.00 | –
20 | CNCCCN(C)S(=O)(=O)c1ccc(-c2cccc3sc(N)nc23)c(-c2nnn[nH]2)c1S(N)(=O)=O.O=C(O)C(F)(F)F [Example 93, 3-(4-(2-aminobenzo[d]thiazol-4-yl)-N-methyl-2-sulfamoyl-3-(1H-tetrazol-5-yl)phenylsulfonamido)-N-methylpropan-1-aminium 2,2,2-trifluoroacetate] | 1.00 | –
21 | Nc1nc2c(-c3ccc(S(=O)(=O)N[C@@H]4CCNC4)c(S(N)(=O)=O)c3-c3nn[nH]n3)cccc2[nH]1 [Example 161, 4-(2-amino-1H-benzo[d]imidazol-4-yl)-N^1—((R)-pyrrolidin-3-yl)-3-(2H-tetrazol-5-yl)benzene-1,2-disulfonamide] | 0.78 | –
22 | Nc1nc2c(-c3ccc(S(=O)(=O)NCC4COCCN4)c(S(N)(=O)=O)c3-c3nnn[nH]3)cccc2s1.O=C(O)C(F)(F)F (stereo not shown) [Example 96, 3-((4-(2-aminobenzo[d]thiazol-4-yl)-2-sulfamoyl-3-(1H-tetrazol-5-yl)phenylsulfonamido)methyl)morpholin-4-ium 2,2,2-trifluoroacetate] | 1.00 | –
